Key:
[1] = system: soybean; assay: Test B pre/postemergence soybean; assay type: in vivo, Glycine max
Method in brief: (§1)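 Test chemicals in a non-phytotoxic solvent mixture with surfactant were sprayed preemergence onto planted seeds and postemergence onto plants 2 to 18 cm tall (1- to 4-leaf stage). After twelve to sixteen days in a greenhouse, injury was visually rated against untreated controls from 0 (no effect) to 10 (complete control).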

[2] = system: smallflower flatsedge; assay: Test B flood test smallflower flatsedge; assay type: in vivo, Cyperus difformis; conditions: for Plant response rating, S. Flatsedge (0 to 10 scale, 0 is no effect, 10 is complete control): Pre-emergence; for Plant response rating, S. Flatsedge (0 to 10 scale, 0 is no effect, 10 is complete control) / S. Flatsedge plant response rating (0 to 10 scale, 0 is no effect, 10 is complete control): visual evaluation after twelve to sixteen days; for S. Flatsedge plant response rating (0 to 10 scale, 0 is no effect, 10 is complete control): under heading Pre-emergence
Method in brief: (§2)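 Flood test on plants grown to the 2-leaf stage; treated plants kept in greenhouse twelve to sixteen days, then visually rated against controls on a 0 (no effect) to 10 (complete control) scale.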

[3] = system: velvetleaf; assay: Test B pre/postemergence velvetleaf; assay type: in vivo, Abutilon theophrasti
Method in brief: as §1

[4] = system: duck salad; assay: Test B flood test duck salad; assay type: in vivo, Heteranthera limosa; conditions: for Plant response rating, Ducksalad (0 to 10 scale, 0 is no effect, 10 is complete control): Pre-emergence; for Plant response rating, Ducksalad (0 to 10 scale, 0 is no effect, 10 is complete control) / Ducksalad plant response rating (0 to 10 scale, 0 is no effect, 10 is complete control): visual evaluation after twelve to sixteen days; for Ducksalad plant response rating (0 to 10 scale, 0 is no effect, 10 is complete control): under heading Pre-emergence
Method in brief: as §2

[5] = Postemergence, Rate 125 g/ha, scale of 0 to 10 where 0 is no effect and 10 is complete control
[6] = Preemergence, Rate 62 g/ha, scale of 0 to 10 where 0 is no effect and 10 is complete control
[7] = Preemergence, Rate 125 g/ha, 0 is no effect, 10 is complete control
[8] = Preemergence, Rate 250 g/ha, scale 0 to 10, 0 is no effect, 10 is complete control
[9] = Preemergence, Rate 500 g/ha, scale 0 to 10 (0 no effect, 10 complete control)
[10] = Rate 250 g/ha, Postemergence, scale 0 to 10, 0 is no effect, 10 is complete control
[11] = Rate 500 g/ha, Postemergence, scale 0 to 10
[12] = Postemergence (flood test species), Rate 125 g/ha, scale of 0 to 10 where 0 is no effect and 10 is complete control
[13] = Rate 62 g/ha, Postemergence section, flood test species, scale of 0 to 10 where 0 is no effect and 10 is complete control
[14] = Rate 250 g/ha, Postemergence (flood test), scale 0 to 10, 0 is no effect, 10 is complete control
[15] = Rate 500 g/ha, listed under Postemergence (flood test species), scale 0 to 10
[16] = Postemergence, Rate 62 g/ha, scale 0 to 10, 0 is no effect, 10 is complete control
[17] = Preemergence, Rate 125 g/ha, scale of 0 to 10 where 0 is no effect and 10 is complete control
[18] = Preemergence, Rate 250 g/ha, scale 0 to 10 (0 no effect, 10 complete control)
[19] = Preemergence, Rate 500 g/ha, scale of 0 to 10 where 0 is no effect and 10 is complete control
[20] = Rate 62 g/ha, flood test species
[21] = Rate 125 g/ha, flood test species
[22] = Rate 250 g/ha, Pre-emergence (flood test species), scale 0 to 10, 0 is no effect, 10 is complete control
[23] = Rate 500 g/ha, Pre-emergence section of Table B, 0 to 10 scale (0 no effect, 10 complete control)

SMILES | Soybean plant response rating [1, 5] | Soybean plant response rating [1, 6] | Velvetleaf plant response rating [3, 6] | Plant response rating, Soybean [1, 16] | Soybean plant response rating [1, 17] | Plant response rating, Soybean [1, 18] | Plant response rating, Soybean [1, 19] | Plant response rating, S. Flatsedge (0 to 10 scale, 0 is no effect, 10 is complete control) [2, 20] | S. Flatsedge plant response rating (0 to 10 scale, 0 is no effect, 10 is complete control) [2, 21] | S. Flatsedge plant response rating [2, 22] | S. Flatsedge plant response rating [2, 23] | Plant response rating, Velvetleaf [3, 16] | Velvetleaf plant response rating [3, 5] | Velvetleaf plant response rating [3, 17] | Plant response rating, Velvetleaf [3, 18] | Plant response rating, Velvetleaf [3, 19] | Plant response rating, Ducksalad (0 to 10 scale, 0 is no effect, 10 is complete control) [4, 20] | Ducksalad plant response rating (0 to 10 scale, 0 is no effect, 10 is complete control) [4, 21] | Ducksalad plant response rating [4, 22] | Ducksalad plant response rating [4, 23] | other results
CC(C)N(C(=O)n1oc(=O)[nH]c1=O)c1ccc(F)cc1 [Compound 164] | 1 | 0 | 0 |  |  |  |  |  |  |  |  |  |  |  |  |  |  |  |  |  | Soybean plant response rating (0 to 10 scale) [1, 7]: 0; Soybean plant response rating [1, 8]: 0; Soybean plant response rating [1, 9]: 0; Soybean plant response rating ([1]; Rate 62 g/ha, Postemergence, scale of 0 to 10 where 0 is no effect and 10 is complete control): 0; Plant response rating, Soybean [1, 10]: 2; Soybean plant response rating [1, 11]: 2; S. Flatsedge plant response rating [2, 12]: 0; S. Flatsedge plant response rating [2, 13]: 0; Plant response rating, S. Flatsedge [2, 14]: 0; S. Flatsedge plant response rating [2, 15]: 0; Velvetleaf plant response rating (0 to 10 scale) [3, 7]: 0; Velvetleaf plant response rating [3, 8]: 0; Velvetleaf plant response rating [3, 9]: 0; Plant response rating, Velvetleaf [3, 10]: 0; Velvetleaf plant response rating [3, 11]: 0; Ducksalad plant response rating [4, 12]: 0; Ducksalad plant response rating [4, 13]: 0; Plant response rating, Ducksalad [4, 14]: 0; Ducksalad plant response rating [4, 15]: 0
CC(C)N(C(=O)n1oc(=O)n(Cc2nnc(Cl)s2)c1=O)c1ccc(F)cc1F [Compound 645] | 1 | 0 | 0 | 1 | 0 | 0 | 0 | 0 | 0 | 0 | 0 | 0 | 0 | 0 | 0 | 0 | 0 | 0 | 0 | 0 | 
CC(C)N(C(=O)n1oc(=O)n(Cc2nnc(Cl)s2)c1=O)c1ccc(F)cc1 [Compound 646] | 1 | 0 | 0 | 0 | 0 | 0 | 0 | 0 | 0 | 0 | 0 | 0 | 0 | 0 | 0 | 0 | 0 | 0 | 0 | 0 | 

Reference: patent US6737383B1, “Herbicidal oxadiazolidines” (priority 1999, dated 2004)
